Reference: patent US8546421B1, “Oncogenic-RAS-signal dependent lethal compounds” (The Trustees of Columbia University in the City of New York, priority 2007, dated 2013)

How the values were obtained:
SR = test: NCI60 anti-cancer screening; conditions: for GI50 / CC50: Homo sapiens; for CC50: read-out: LC 50%; for GI 100%: Leukemia
HL-60(TB) = conditions: Leukemia
[1] = test system: BJ-derived cell lines (BJ-TERT/LT/ST/RAS^V12 cells); test: Vi-Cell analysis (trypan blue exclusion); format: cell-based, human; conditions: 24 hours
Procedure: 200,000 cells were seeded in 6-well plates and treated with the indicated amount of 2-fold dilution series concentration of a candidate compound in 2 mL BJ growth medium. After 24 hours, cells were released with trypsin/EDTA, harvested in 1.1 mL growth medium, and transferred to a Vi-Cell (Beckman Coulter) disposable cup. After, trypan blue staining, 100 images of sample were taken and analysis of the images was carried out automatically by a Vi-Cell cell viability analyzer (Beckman Coulter).

[2] = test system: BJ-TERT/LT/ST/RAS^V12 cells; test: Counter screening with biologically active compounds; format: cell-based, human; conditions: for biologically active compounds that suppress compound-induced cell death: 36 bioactive compounds of Table 1, 24 hours, alamar blue
Procedure: Biologically active compounds listed in Table 1 were dissolved in BJ medium at 10× final concentration and aliquoted into eppendorf tubes. 100 μL of each 10× solution was transferred to column 1 to column 12 or column 13 to column 24 of a single row in a 384-well daughter plate. This plate was designated as ‘10× biologically active plate’. In order to prepare lethal compound solution, Erastin and compounds 3, 6, 27, and 36 were dissolved in BJ medium at a concentration of 100 μg/mL, 400 μg/mL, 400 μg/mL, 100 μg/mL, and 200 μg/mL, respectively. Empty daughter plates were filled with 50 μL BJ media except for columns 5 and 13 where 100 μL of each lethal solution was transferred. After lethal solution transfer, 2-fold dilution series across columns 5 to 12 and columns 13 to 20 was made by transferring 50 μL compound solution to the next column successively (8-point dilution series), with mixing. These five plates were each designated ‘10× lethal plate’. Five assay plates were prepared by seeding 4,000 BJ-TERT/LT/ST/RAS^V12 cells per well in 32 μL of growth media in black, clear bottom 384-well plates. Cells in assay plates were first treated with biologically active compounds by transferring 4 μL from the 10× inhibitor plate. Cells were then treated with each lethal compound in a 2-fold dilution series by transferring 4 μL solution from each 10× lethal plate. […] Percent growth inhibition (% GI) was calculated by the following formula using fluorescence intensity values: % GI=100*(1−(X−N)/([…])) wherein X is the fluorescent intensity value measured at 590 nm for cells treated with biologically active compound and lethal compound; N is the fluorescent intensity value measured at 590 nm for a control containing no cells (i.e. biologically active compound in growth media); and P is the fluorescent intensity value measured at 590 nm for a control containing no lethal compound (i.e., cells treated with biologically active compound). Counter Screening with Iron Chelators

UACC-62 = test: NCI60 anti-cancer screening
SK-MEL-5 = test: NCI60 anti-cancer screening
MALME-3M = test: NCI60 anti-cancer screening
SF-268 = test: NCI60 anti-cancer screening
TK-10 = test: NCI60 anti-cancer screening
HT29 = test: NCI60 anti-cancer screening; conditions: for GI 100%: HT29, Colon Cancer; for GI50 / CC50: Homo sapiens; for GI50: HT-29; for CC50: HT-29, read-out: LC 50%
RPMI-8226 = test: NCI60 anti-cancer screening
COLO 205 = test: NCI60 anti-cancer screening
SF-539 = test: NCI60 anti-cancer screening
DU-145 = test: NCI60 anti-cancer screening
K-562 = test: NCI60 anti-cancer screening; conditions: for GI50 / CC50: Homo sapiens; for GI50: K562; for CC50: K562, read-out: LC 50%
KM12 = test: NCI60 anti-cancer screening
T-47D = test: NCI60 anti-cancer screening
UO-31 = test: NCI60 anti-cancer screening

CCc1c(O)c2c(c(O)c1O[C@H]1O[C@@H](COC(C)=O)[C@H](OC(C)=O)[C@@H](CC(C)=O)[C@@H]1OC(C)=O)C(=O)C(O[C@@H]1O[C@H](COC(C)=O)[C@@H](OC(C)=O)[C@H](OC(C)=O)[C@H]1OC(C)=O)=C(O[C@@H]1O[C@H](COC(C)=O)[C@@H](OC(C)=O)[C@H](OC(C)=O)[C@H]1OC(C)=O)C2=O [Compound 6]
GI50 (SR): 2.65 µM
CC50 (SR): > 10 µM
GI 100% (SR): 8.4 µM
GI 100% (HL-60(TB)): 2.38 µM
potency and selectivity by trypan blue exclusion (in words) [1]: confirmed the potency and selectivity
biologically active compounds that suppress compound-induced cell death [2]: only reduced glutathione (GSH) was able to inhibit
GI50 (UACC-62; Homo sapiens, UACC-62): 9.78 µM
CC50 (UACC-62; Homo sapiens, UACC-62, read-out: LC 50%): > 10 µM
GI 100% (UACC-62; UACC-62, Melanoma): >10 µM
GI50 (SK-MEL-5; Homo sapiens, SK-MEL-5): 5 µM
CC50 (SK-MEL-5; Homo sapiens, SK-MEL-5, read-out: LC 50%): > 10 µM
GI 100% (SK-MEL-5; SK-MEL-5, Melanoma): >10 µM
GI50 (MALME-3M; Homo sapiens, Malme-3M): 0.261 µM
CC50 (MALME-3M; Homo sapiens, Malme-3M, read-out: LC 50%): 2.8 µM
GI 100% (MALME-3M; MALME-3M, Melanoma): 0.723 µM
GI50 (SF-268; Homo sapiens, SF-268): 2.46 µM
CC50 (SF-268; Homo sapiens, SF-268, read-out: LC 50%): > 10 µM
GI 100% (SF-268; SF-268, CNS Cancer): 7.71 µM
GI50 (TK-10; Homo sapiens, TK-10): 2.76 µM
CC50 (TK-10; Homo sapiens, TK-10, read-out: LC 50%): > 10 µM
GI 100% (TK-10; TK-10, Renal Cancer): >10 µM
GI 100% (HT29): >10 µM
GI50 (HT29): 3.32 µM
CC50 (HT29): > 10 µM
GI50 (RPMI-8226; Homo sapiens, RPMI-8226): 2.37 µM
CC50 (RPMI-8226; Homo sapiens, RPMI-8226, read-out: LC 50%): > 10 µM
GI 100% (RPMI-8226; RPMI-8226, Leukemia): 6.77 µM
GI 100% (COLO 205; COLO 205, Colon Cancer): 1.26 µM
GI50 (COLO 205; Homo sapiens, COLO 205): 0.232 µM
CC50 (COLO 205; Homo sapiens, COLO 205, read-out: LC 50%): 4.78 µM
GI50 (SF-539; Homo sapiens, SF-539): 2.32 µM
CC50 (SF-539; Homo sapiens, SF-539, read-out: LC 50%): 9.59 µM
GI 100% (SF-539; SF-539, CNS Cancer): 4.71 µM
GI 100% (DU-145; DU-145, Prostate Cancer): >10 µM
GI50 (DU-145; Homo sapiens, DU-145): 5.28 µM
CC50 (DU-145; Homo sapiens, DU-145, read-out: LC 50%): > 10 µM
GI50 (K-562): 0.238 µM
CC50 (K-562): > 10 µM
GI50 (KM12; Homo sapiens, KM12): 5.2 µM
CC50 (KM12; Homo sapiens, KM12, read-out: LC 50%): > 10 µM
GI 100% (KM12; KM12, Colon Cancer): >10 µM
GI50 (T-47D; Homo sapiens, T47D): 4.53 µM
CC50 (T-47D; Homo sapiens, T47D, read-out: LC 50%): 9.35 µM
GI 100% (T-47D; T-47D, Breast Cancer): 2.06 µM

COCCOC(=O)C1=C(C)NC2=C(C(=O)CC(c3ccc(Cl)cc3)C2)C1c1ccccc1F (centres unmarked) [Compound 3]
GI50 (SR): 7.15 µM
CC50 (SR): > 10 µM
GI 100% (SR): >10 µM
GI50 (UO-31; Homo sapiens, UO-31): 6.82 µM
CC50 (UO-31; Homo sapiens, UO-31, read-out: LC 50%): > 10 µM
GI 100% (UO-31; UO-31, Renal Cancer): >10 µM
GI 100% (HL-60(TB)): >10 µM
biologically active compounds that suppress compound-induced cell death [2]: anti-oxidants (GSH, BHT, Vit. E), iron chelators (L-mim, DFOM), and a protein synthesis inhibitor (cycloheximide)
effect of MEK1/2 inhibitor (U0126) on compound-induced cell death ([2]; U0126 10 uM): completely blocked
GI 100% (HT29): >10 µM
GI50 (HT29): 9.82 µM
CC50 (HT29): > 10 µM
GI50 (K-562): 9.16 µM
CC50 (K-562): > 10 µM
GI 100% (K-562; K-562, Leukemia): >10 µM
